From the supplement of paper PMC13380429

Columns and labels:
Details in all cases: 72 h
[1] = test system: Caco-2; test: relative viability EC50 (midpoint between 100% and the lowest measured viability); higher = less toxic
[2] = test system: Calu-3; test: as above
[3] = test system: HepG2; test: as above
[4] = test system: U2OS; test: as above
[5] = test system: Vero E6; test: as above
[6] = test system: Caco-2; test: cell viability relative to DMSO; higher = less toxic
[7] = test system: Calu-3; test: as above
[8] = test system: HepG2; test: as above
[9] = test system: U2OS; test: as above
[10] = test system: Vero E6; test: as above
[11] = test system: Caco-2; test: drug sensitivity score (DSS) for viability; higher = more toxic; extreme values may be limits of the assay
[12] = test system: Calu-3; test: as above
[13] = test system: HepG2; test: as above
[14] = test system: U2OS; test: as above
[15] = test system: Vero E6; test: as above

Row | Structure (SMILES) | relative viability EC50 [1] [µM] | relative viability EC50 [2] [µM] | relative viability EC50 [3] [µM] | relative viability EC50 [4] [µM] | relative viability EC50 [5] [µM] | cell viability ([6]; 1 nM) [%] | cell viability ([6]; 10 nM) [%] | cell viability ([6]; 100 nM) [%] | cell viability ([6]; 1000 nM) [%] | cell viability ([6]; 10000 nM) [%] | cell viability ([7]; 1 nM) [%] | cell viability ([7]; 10 nM) [%] | cell viability ([7]; 100 nM) [%] | cell viability ([7]; 1000 nM) [%] | cell viability ([7]; 10000 nM) [%] | cell viability ([8]; 1 nM) [%] | cell viability ([8]; 10 nM) [%] | cell viability ([8]; 100 nM) [%] | cell viability ([8]; 1000 nM) [%] | cell viability ([8]; 10000 nM) [%] | cell viability ([9]; 1 nM) [%] | cell viability ([9]; 10 nM) [%] | cell viability ([9]; 100 nM) [%] | cell viability ([9]; 1000 nM) [%] | cell viability ([9]; 10000 nM) [%] | cell viability ([10]; 1 nM) [%] | cell viability ([10]; 10 nM) [%] | cell viability ([10]; 100 nM) [%] | cell viability ([10]; 1000 nM) [%] | cell viability ([10]; 10000 nM) [%] | drug sensitivity score [11] | drug sensitivity score [12] | drug sensitivity score [13] | drug sensitivity score [14] | drug sensitivity score [15]
1 | CC(ONC(=O)c1cc(C(F)(F)F)cc(C(F)(F)F)c1)C(=O)Nc1ccc(Cl)cc1 (stereo not given) [CCG-1423] | > 10 | > 10 | > 10 | > 10 | > 10 | 99.9 | 97.9 | 91.4 | 97.4 | 88.6 | 96.4 | 89.5 | 85 | 95.1 | 98.7 | 108 | 99.4 | 94.9 | 96.8 | 89.2 | 100 | 98.6 | 105 | 99.6 | 101 | 101 | 99.4 | 99 | 105 | 99.2 | 0 | 0 | 0 | 0 | 0
2 | c1ccc(Oc2cccnc2)cc1 [CI-844] | > 10 | > 10 | > 10 | > 10 | > 10 | 96 | 97.6 | 90.4 | 93.1 | 93.2 | 104 | 101 | 89.9 | 94.1 | 106 | 102 | 103 | 94.3 | 97.4 | 106 | 100 | 103 | 94.9 | 97.2 | 96.1 | 101 | 103 | 100 | 99.8 | 98.7 | 0 | 0 | 0 | 0 | 0
3 | CC[C@H](CO)Nc1nc(NCc2ccc(-c3ccccn3)cc2)c2ncn(C(C)C)c2n1 [CR8-(R)] | 0.172 | 0.184 | 0.0531 | 0.315 | 0.201 | 101 | 97.1 | 86.5 | 34.5 | 34.1 | 104 | 80 | 87 | 31.3 | 39.9 | 88.7 | 102 | 17.2 | 0.7 | 8.8 | 100 | 93.3 | 99.8 | 0.2 | 4.8 | 90.2 | 99.3 | 85.8 | 2.9 | 9.3 | 14.3 | 14.6 | 27.5 | 17.9 | 19.9
4 | CNc1ccc([N+](=O)[O-])cc1-n1cnc(-c2ccc(C(F)(F)F)cc2)c1 [CU-T12-9] | > 10 | > 10 | > 10 | > 10 | > 10 | 95.4 | 105 | 96.8 | 101 | 101 | 104 | 90.9 | 93.8 | 94.9 | 94.9 | 108 | 104 | 93.8 | 95.4 | 91.3 | 103 | 103 | 96.2 | 98.2 | 100 | 103 | 96.4 | 100 | 101 | 102 | 0 | 0 | 0 | 0 | 0
5 | CC(=O)N[C@@H](CSSC[C@H](NC(C)=O)C(=O)O)C(=O)O [D-7193] | > 10 | > 10 | > 10 | > 10 | > 10 | 100 | 96.1 | 104 | 92 | 100 | 93.5 | 83.4 | 103 | 95.6 | 110 | 108 | 88.5 | 108 | 98.9 | 98 | 95.1 | 96.2 | 98.6 | 98.2 | 101 | 107 | 106 | 100 | 103 | 99.2 | 0 | 0 | 0 | 0 | 0
6 | CC(C)N(C[C@H]1O[C@@H](n2cnc3c(N)ncnc32)[C@H](O)[C@@H]1O)[C@H]1C[C@@H](CCc2nc3cc(C(C)(C)C)ccc3[nH]2)C1 [EPZ-5676] | > 10 | > 10 | > 10 | > 10 | > 10 | 90.7 | 99.2 | 100 | 97.1 | 101 | 101 | 102 | 95.4 | 104 | 104 | 106 | 94.9 | 89.7 | 105 | 108 | 105 | 97.5 | 101 | 102 | 111 | 106 | 106 | 98.9 | 102 | 106 | 0 | 0 | 0 | 0 | 0
7 | Cc1cccc(-c2[nH]c(CNc3ccccc3F)nc2-c2ccc3ncnn3c2)n1 [EW-7197] | > 10 | > 10 | > 10 | > 10 | > 10 | 95.7 | 96.4 | 94.1 | 109 | 99.4 | 97.3 | 88.4 | 96.9 | 114 | 105 | 95.1 | 104 | 106 | 103 | 93.3 | 99.1 | 99.4 | 94.4 | 95.5 | 85.5 | 102 | 105 | 102 | 95.4 | 98.7 | 0 | 0 | 0 | 0.1 | 0
8 | O=C(NCCN1CCC(n2c(=O)[nH]c3ccccc32)CC1)c1cc2cc(F)ccc2[nH]1 [FIPI] | > 10 | > 10 | > 10 | > 10 | > 10 | 95.7 | 101 | 100 | 101 | 106 | 92.2 | 101 | 99.8 | 98 | 96.8 | 90.7 | 110 | 98.2 | 93.7 | 91.1 | 97 | 94 | 100 | 97.4 | 94.8 | 95 | 95.9 | 99 | 96.6 | 103 | 0 | 0 | 0 | 0 | 0
9 | C/C(O)=C(\C#N)C(=O)Nc1cc(Br)ccc1Br [LFM-A13] | > 10 | > 10 | > 10 | > 10 | > 10 | 99.6 | 99.5 | 90.1 | 100 | 92.1 | 92.8 | 99.6 | 103 | 100 | 94.7 | 105 | 99.7 | 99.5 | 99 | 101 | 102 | 103 | 97.3 | 104 | 96.4 | 112 | 80.5 | 99 | 96.3 | 105 | 0 | 0 | 0 | 0 | 0
10 | O=C(NCCN1CCCCC1)c1ccc(I)cc1 [N-[2-(piperidinylamino)ethyl]-4-iodobenzamide] | > 10 | > 10 | > 10 | > 10 | > 10 | 96.4 | 99.6 | 105 | 92.1 | 91.2 | 101 | 89.4 | 94.6 | 92.7 | 116 | 103 | 91.8 | 103 | 99.1 | 91.3 | 103 | 97.5 | 97 | 91.3 | 95.5 | 101 | 99.6 | 96.5 | 99.3 | 93.4 | 0 | 0 | 0 | 0 | 0
11 | O=C(NCc1ccc(OC(F)(F)F)cc1)C1c2ccccc2C(=O)N1C1CCOCC1 (stereo not given) [NAV-26] | > 10 | > 10 | > 10 | > 10 | > 10 | 100 | 90.6 | 105 | 96.8 | 99.2 | 103 | 97.6 | 93.8 | 99.5 | 100 | 107 | 91.6 | 96.7 | 112 | 112 | 99.3 | 94.5 | 99 | 95.9 | 91 | 95.7 | 101 | 88.7 | 98.9 | 107 | 0 | 0 | 0 | 0 | 0
12 | CCCN(CCC)CCc1ccc(OC)c(OCCc2ccccc2)c1 [NE-100] | > 10 | > 10 | > 10 | > 10 | > 10 | 105 | 102 | 89.8 | 92.9 | 91.3 | 95.1 | 93.5 | 85.9 | 107 | 105 | 101 | 98.5 | 98.6 | 99.3 | 93 | 105 | 100 | 104 | 101 | 97.9 | 107 | 106 | 99.3 | 103 | 94.8 | 0.1 | 0 | 0 | 0 | 0
13 | Cc1c(-c2ccccc2F)[nH]c(N)c1C#N [NS-8] | > 10 | > 10 | > 10 | > 10 | > 10 | 96.9 | 90.1 | 105 | 97.5 | 105 | 104 | 101 | 83.6 | 103 | 99.2 | 93.1 | 98.3 | 90.7 | 96.9 | 116 | 98.1 | 95.9 | 99.8 | 93.9 | 103 | 95.2 | 99.1 | 96.2 | 97.7 | 109 | 0 | 0 | 0 | 0 | 0
14 | C[C@H](Nc1cc(-c2cnn(C)c2)cc(Nc2cnccn2)n1)c1ccc(F)cc1 [NS-018] | 1.58 | 0.517 | 1.54 | 1.88 | 1.76 | 99.1 | 102 | 104 | 83.6 | 32 | 96.4 | 89.1 | 91.9 | 62.7 | 42 | 101 | 102 | 102 | 75.6 | 3.1 | 97.6 | 95.1 | 100 | 87.6 | 26.4 | 106 | 100 | 99.7 | 83.4 | 14.5 | 6.3 | 8.1 | 9.1 | 6.1 | 7.4
